Measurements reported in patent publication US20250353891A1 (MEDIMMUNE LIMITED, priority 2022, published 2025).
Starred links: 1 amine or outer side, 2 acyl side, 3 side chain; linkers in the order of their positions; H or OH if unused. Non-standard residues stand in square brackets, D forms with d. Residues, ends and D or L forms follow the SMILES beside them. Groups on a side chain read outwards from the residue. *: point of attachment. C20 diacid = O=C(O)CCCCCCCCCCCCCCCCCCC(=O)*; C18 diacid = O=C(O)CCCCCCCCCCCCCCCCC(=O)*; γGlu = O=C(O)[C@H](CCC(=O)[*:2])N[*:1]; αMeF = C[C@](N)(Cc1ccccc1)C(=O)O; AEEA = NCCOCCOCC(=O)O; Aib = CC(C)(N)C(=O)O

Tests used:
[1] = biological target: human GLP-1 receptor (hGLP-1R) (Homo sapiens, UniProt P43220); experiment: cAMP production (HTRF) in CHO cells expressing hGLP-1R; assay type: cell-based; set-up: expressed in transfected cells; conditions: for EC50: Table 7, peptides modified at position 20, cAMP in CHO hGLP-1R cells, geometric mean, read-out: hGLP-1R EC50; for % Relative Potency Ratio: Table 7, % GLP-1R activity relative to GLP-1 / % GlucR activity relative to glucagon
Method in brief: (§1)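 Read-out: HTRF cAMP (anti-cAMP cryptate donor, cAMP-d2 acceptor in conjugate/lysis buffer), converted to % Delta F and fitted by 4-parameter logistic for EC50. Cell densities were 1×10^5 cells/mL (hGLP-1R) or 2×10^5 cells/mL (hGCGR). Stimulation lasted 30 min at room temperature.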

[2] = biological target: human glucagon receptor (hGCGR) (Homo sapiens, UniProt P47871); experiment: cAMP production (HTRF) in CHO cells expressing hGCGR; assay type: cell-based; set-up: expressed in transfected cells; conditions: Table 7, peptides modified at position 20; cAMP in CHO hGCGR cells; geometric mean; read-out: hGluc-R EC50
Method in brief: as §1

Chain of human GLP-1 receptor (hGLP-1R) (P43220 24-463): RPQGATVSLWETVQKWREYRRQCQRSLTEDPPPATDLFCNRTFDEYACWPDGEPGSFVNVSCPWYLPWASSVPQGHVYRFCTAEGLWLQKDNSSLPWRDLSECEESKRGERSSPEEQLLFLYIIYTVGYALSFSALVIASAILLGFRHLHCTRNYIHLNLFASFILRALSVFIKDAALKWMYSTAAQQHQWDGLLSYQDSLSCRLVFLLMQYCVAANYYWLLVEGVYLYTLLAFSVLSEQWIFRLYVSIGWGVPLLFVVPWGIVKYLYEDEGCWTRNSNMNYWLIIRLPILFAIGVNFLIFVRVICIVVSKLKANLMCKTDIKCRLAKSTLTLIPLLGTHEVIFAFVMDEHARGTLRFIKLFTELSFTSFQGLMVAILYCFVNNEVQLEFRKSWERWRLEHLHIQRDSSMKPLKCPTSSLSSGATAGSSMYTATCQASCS
Chain of human glucagon receptor (hGCGR) (P47871 26-477): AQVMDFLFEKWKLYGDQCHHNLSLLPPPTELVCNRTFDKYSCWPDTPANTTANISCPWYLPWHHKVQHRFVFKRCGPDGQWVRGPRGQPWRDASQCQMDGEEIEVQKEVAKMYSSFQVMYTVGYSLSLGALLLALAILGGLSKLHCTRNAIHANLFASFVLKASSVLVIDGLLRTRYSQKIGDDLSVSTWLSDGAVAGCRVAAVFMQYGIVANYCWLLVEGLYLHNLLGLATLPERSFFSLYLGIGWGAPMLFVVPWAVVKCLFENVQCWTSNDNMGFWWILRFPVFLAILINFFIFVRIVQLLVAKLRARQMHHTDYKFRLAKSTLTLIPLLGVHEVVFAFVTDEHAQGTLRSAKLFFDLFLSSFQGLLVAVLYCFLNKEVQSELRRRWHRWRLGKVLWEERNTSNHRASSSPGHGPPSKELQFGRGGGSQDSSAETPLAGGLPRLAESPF

| Structure (SMILES) | EC50 [1] | % Relative Potency Ratio [1] | EC50 [2] |
| --- | --- | --- | --- |
| CC[C@H](C)[C@H](NC(=O)C(C)(C)NC(=O)[C@H](CCC(N)=O)NC(=O)[C@@H](NC(=O)[C@H](Cc1ccccc1)NC(=O)[C@H](CC(=O)O)NC(=O)[C@H](CCCCNC(=O)COCCOCCNC(=O)COCCOCCNC(=O)CC[C@H](NC(=O)CC[C@H](NC(=O)CCCCCCCCCCCCCCCCC(=O)O)C(=O)O)C(=O)O)NC(=O)[C@H](C)NC(=O)[C@H](C)NC(=O)[C@H](CCCNC(=N)N)NC(=O)[C@H](CO)NC(=O)[C@H](CC(=O)O)NC(=O)[C@H](CC(C)C)NC(=O)[C@](C)(Cc1ccccc1)NC(=O)[C@H](CCCCN)NC(=O)[C@H](CO)NC(=O)[C@@H](NC(=O)[C@H](CC(=O)O)NC(=O)[C@H](CO)NC(=O)[C@@H](NC(=O)[C@](C)(Cc1ccccc1)NC(=O)[C@H](CO)NC(=O)CNC(=O)[C@H](Cc1c[nH]cn1)NC(=O)C(C)(C)NC(=O)[C@@H](N)Cc1c[nH]cn1)[C@@H](C)O)C(C)C)C(C)C)C(=O)N[C@@H](C)C(=O)N[C@@H](CC(N)=O)C(=O)N[C@H](C(=O)NCC(N)=O)[C@@H](C)O [Peptide 236] (H-H[Aib]HGS[αMeF]TSDVSK[αMeF]LDSRAAK([AEEA-AEEA-γGlu-γGlu-C18 diacid])DFVQ[Aib]IANTG-NH2) | 0.0221 nM | 19.2 | 0.215 nM |
| CC[C@H](C)[C@H](NC(=O)C(C)(C)NC(=O)[C@H](CCC(N)=O)NC(=O)[C@@H](NC(=O)[C@H](Cc1ccccc1)NC(=O)[C@H](CC(=O)O)NC(=O)[C@H](CCCCNC(=O)COCCOCCNC(=O)COCCOCCNC(=O)CC[C@H](NC(=O)CC[C@H](NC(=O)CCCCCCCCCCCCCCCCC(=O)O)C(=O)O)C(=O)O)NC(=O)[C@H](C)NC(=O)[C@H](C)NC(=O)[C@H](CCCNC(=N)N)NC(=O)[C@H](CO)NC(=O)[C@H](CC(=O)O)NC(=O)[C@H](CC(C)C)NC(=O)[C@](C)(Cc1ccccc1)NC(=O)[C@H](CCCCN)NC(=O)[C@H](CO)NC(=O)[C@@H](NC(=O)[C@H](CC(=O)O)NC(=O)[C@H](CO)NC(=O)[C@@H](NC(=O)[C@](C)(Cc1ccccc1)NC(=O)[C@H](CO)NC(=O)CNC(=O)[C@H](Cc1c[nH]cn1)NC(=O)C(C)(C)NC(=O)[C@@H](N)Cc1c[nH]cn1)[C@@H](C)O)C(C)C)C(C)C)C(=O)N[C@@H](C)C(=O)N[C@@H](CC(N)=O)C(=O)N[C@H](C(=O)NCC(=O)NCC(N)=O)[C@@H](C)O [Peptide 237] (H-H[Aib]HGS[αMeF]TSDVSK[αMeF]LDSRAAK([AEEA-AEEA-γGlu-γGlu-C18 diacid])DFVQ[Aib]IANTGG-NH2; N-terminus assumed) | 0.0267 nM | 22.1 | 0.299 nM |
| CC[C@H](C)[C@H](NC(=O)[C@H](Cc1c[nH]c2ccccc12)NC(=O)[C@H](CCC(N)=O)NC(=O)[C@@H](NC(=O)[C@](C)(Cc1ccccc1)NC(=O)[C@H](CC(=O)O)NC(=O)[C@H](CCCCNC(=O)COCCOCCNC(=O)COCCOCCNC(=O)CC[C@H](NC(=O)CC[C@H](NC(=O)CCCCCCCCCCCCCCCCCCC(=O)O)C(=O)O)C(=O)O)NC(=O)[C@H](C)NC(=O)[C@H](C)NC(=O)[C@H](CCCNC(=N)N)NC(=O)[C@H](CO)NC(=O)[C@H](CC(=O)O)NC(=O)[C@H](CC(C)C)NC(=O)[C@](C)(Cc1ccccc1)NC(=O)[C@H](CCCCN)NC(=O)[C@H](CO)NC(=O)[C@@H](NC(=O)[C@H](CC(=O)O)NC(=O)[C@H](CO)NC(=O)[C@@H](NC(=O)[C@](C)(Cc1ccccc1)NC(=O)[C@H](CO)NC(=O)CNC(=O)[C@H](Cc1c[nH]cn1)NC(=O)C(C)(C)NC(=O)[C@@H](N)Cc1c[nH]cn1)[C@@H](C)O)C(C)C)C(C)C)C(=O)N[C@@H](C)C(=O)N[C@@H](CC(N)=O)C(=O)N[C@H](C(=O)NCC(N)=O)[C@@H](C)O [Peptide 238] (H-H[Aib]HGS[αMeF]TSDVSK[αMeF]LDSRAAK([AEEA-AEEA-γGlu-γGlu-C20 diacid])D[αMeF]VQWIANTG-NH2) | 0.155 nM | 12.7 | 0.99 nM |
| CC[C@H](C)[C@H](NC(=O)[C@H](CO)NC(=O)[C@H](CCC(N)=O)NC(=O)[C@@H](NC(=O)[C@H](Cc1ccccc1)NC(=O)[C@H](CC(=O)O)NC(=O)[C@H](CCCCNC(=O)COCCOCCNC(=O)COCCOCCNC(=O)CC[C@H](NC(=O)CC[C@H](NC(=O)CCCCCCCCCCCCCCCCCCC(=O)O)C(=O)O)C(=O)O)NC(=O)[C@H](C)NC(=O)C(C)(C)NC(=O)[C@H](CCCNC(=N)N)NC(=O)[C@H](CO)NC(=O)[C@H](CC(=O)O)NC(=O)[C@H](CC(C)C)NC(=O)[C@](C)(Cc1ccccc1)NC(=O)[C@H](CCCCN)NC(=O)[C@H](CO)NC(=O)[C@@H](NC(=O)[C@H](CC(=O)O)NC(=O)[C@H](CO)NC(=O)[C@@H](NC(=O)[C@](C)(Cc1ccccc1)NC(=O)[C@H](CO)NC(=O)CNC(=O)[C@H](Cc1c[nH]cn1)NC(=O)C(C)(C)NC(=O)[C@@H](N)Cc1c[nH]cn1)[C@@H](C)O)C(C)C)C(C)C)C(=O)N[C@@H](C)C(=O)N[C@@H](CC(N)=O)C(=O)N[C@H](C(N)=O)[C@@H](C)O [Peptide 242] (H-H[Aib]HGS[αMeF]TSDVSK[αMeF]LDSR[Aib]AK([AEEA-AEEA-γGlu-γGlu-C20 diacid])DFVQSIANT-NH2; N-terminus assumed) | 0.249 nM | 9.8 | 1.23 nM |

Other lines, results leading:

| EC50 [1] | % Relative Potency Ratio [1] | EC50 [2] | Structure (SMILES) |
| --- | --- | --- | --- |
| 0.105 nM | 13.2 | 0.705 nM | CC[C@H](C)[C@H](NC(=O)[C@H](Cc1c[nH]c2ccccc12)NC(=O)[C@H](CCC(N)=O)NC(=O)[C@@H](NC(=O)[C@](C)(Cc1ccccc1)NC(=O)[C@H](CC(=O)O)NC(=O)[C@H](CCCCNC(=O)COCCOCCNC(=O)COCCOCCNC(=O)CC[C@H](NC(=O)CC[C@H](NC(=O)CCCCCCCCCCCCCCCCCCC(=O)O)C(=O)O)C(=O)O)NC(=O)[C@H](C)NC(=O)[C@H](C)NC(=O)[C@H](CCCNC(=N)N)NC(=O)[C@H](CO)NC(=O)[C@H](CC(=O)O)NC(=O)[C@H](CC(C)C)NC(=O)[C@](C)(Cc1ccccc1)NC(=O)[C@H](CCCCN)NC(=O)[C@H](CO)NC(=O)[C@@H](NC(=O)[C@H](CC(=O)O)NC(=O)[C@H](CO)NC(=O)[C@@H](NC(=O)[C@](C)(Cc1ccccc1)NC(=O)[C@H](CO)NC(=O)CNC(=O)[C@H](Cc1c[nH]cn1)NC(=O)C(C)(C)NC(=O)[C@@H](N)Cc1c[nH]cn1)[C@@H](C)O)C(C)C)C(C)C)C(=O)N[C@@H](C)C(=O)N[C@@H](CC(N)=O)C(=O)N[C@H](C(=O)NCC(=O)NCC(N)=O)[C@@H](C)O [Peptide 239] (H-H[Aib]HGS[αMeF]TSDVSK[αMeF]LDSRAAK([AEEA-AEEA-γGlu-γGlu-C20 diacid])D[αMeF]VQWIANTGG-NH2) |
| 0.0571 nM | 11.5 | 0.332 nM | CC[C@H](C)[C@H](NC(=O)[C@H](Cc1c[nH]c2ccccc12)NC(=O)[C@H](CCC(N)=O)NC(=O)[C@@H](NC(=O)[C@](C)(Cc1ccccc1)NC(=O)[C@H](CC(=O)O)NC(=O)[C@H](CCCCNC(=O)COCCOCCNC(=O)COCCOCCNC(=O)CC[C@H](NC(=O)CC[C@H](NC(=O)CCCCCCCCCCCCCCCCC(=O)O)C(=O)O)C(=O)O)NC(=O)[C@H](C)NC(=O)[C@H](C)NC(=O)[C@H](CCCNC(=N)N)NC(=O)[C@H](CO)NC(=O)[C@H](CC(=O)O)NC(=O)[C@H](CC(C)C)NC(=O)[C@](C)(Cc1ccccc1)NC(=O)[C@H](CCCCN)NC(=O)[C@H](CO)NC(=O)[C@@H](NC(=O)[C@H](CC(=O)O)NC(=O)[C@H](CO)NC(=O)[C@@H](NC(=O)[C@](C)(Cc1ccccc1)NC(=O)[C@H](CO)NC(=O)CNC(=O)[C@H](Cc1c[nH]cn1)NC(=O)C(C)(C)NC(=O)[C@@H](N)Cc1c[nH]cn1)[C@@H](C)O)C(C)C)C(C)C)C(=O)N[C@@H](C)C(=O)N[C@@H](CC(N)=O)C(=O)N[C@H](C(=O)NCC(N)=O)[C@@H](C)O [Peptide 240] (H-H[Aib]HGS[αMeF]TSDVSK[αMeF]LDSRAAK([AEEA-AEEA-γGlu-γGlu-C18 diacid])D[αMeF]VQWIANTG-NH2) |
| 0.0358 nM | 9.7 | 0.175 nM | CC[C@H](C)[C@H](NC(=O)[C@H](Cc1c[nH]c2ccccc12)NC(=O)[C@H](CCC(N)=O)NC(=O)[C@@H](NC(=O)[C@](C)(Cc1ccccc1)NC(=O)[C@H](CC(=O)O)NC(=O)[C@H](CCCCNC(=O)COCCOCCNC(=O)COCCOCCNC(=O)CC[C@H](NC(=O)CC[C@H](NC(=O)CCCCCCCCCCCCCCCCC(=O)O)C(=O)O)C(=O)O)NC(=O)[C@H](C)NC(=O)[C@H](C)NC(=O)[C@H](CCCNC(=N)N)NC(=O)[C@H](CO)NC(=O)[C@H](CC(=O)O)NC(=O)[C@H](CC(C)C)NC(=O)[C@](C)(Cc1ccccc1)NC(=O)[C@H](CCCCN)NC(=O)[C@H](CO)NC(=O)[C@@H](NC(=O)[C@H](CC(=O)O)NC(=O)[C@H](CO)NC(=O)[C@@H](NC(=O)[C@](C)(Cc1ccccc1)NC(=O)[C@H](CO)NC(=O)CNC(=O)[C@H](Cc1c[nH]cn1)NC(=O)C(C)(C)NC(=O)[C@@H](N)Cc1c[nH]cn1)[C@@H](C)O)C(C)C)C(C)C)C(=O)N[C@@H](C)C(=O)N[C@@H](CC(N)=O)C(=O)N[C@H](C(=O)NCC(=O)NCC(N)=O)[C@@H](C)O [Peptide 241] (H-H[Aib]HGS[αMeF]TSDVSK[αMeF]LDSRAAK([AEEA-AEEA-γGlu-γGlu-C18 diacid])D[αMeF]VQWIANTGG-NH2; N-terminus assumed) |
